Laboratory results published in patent publication US9266820B2, “Nitric oxide donor compounds” (NICOX S.A., priority 2007, dated 2016).
Where a name gives a salt, the structure may show the parent alone. Read-outs that look alike come from different tables or passages of the source.

System: isolated rabbit thoracic aorta preparations
Assay: vasorelaxant activity in isolated rabbit thoracic aorta preparations precontracted with noradrenaline
Type: cell-based
Details: read-out: IC50 (μM) ± sem
Description: The ability of the compounds of the present invention to release nitric oxide was assessed testing their vasorelaxant activity in isolated rabbit thoracic aorta preparations (Wanstall J. C. et al., Br. J. Pharmacol., 134:463-472, 2001).
Male New Zealand rabbits were anaesthetized with thiopental-Na (50 mg/kg, iv), sacrificed by exsanguinations and then the thorax was opened and the aorta dissected. Single ring preparations (4 mm in length) of thoracic aorta were set up in physiological salt solution (PSS) at 37° C. in small organ chambers (5 ml). The composition of PSS was (mM): NaCl 130, NaHCO3 14.9, KH2PO4 1.2, MgSO4 1.2, HEPES 10, CaCl2, ascorbic acid […] and glucose 1.1 (95%)2/5% CO2; pH 7.4). Each ring was mounted under 2 g passive tension in 5 ml organ bath. Isometric tension was recorded with a Grass transducer (Grass FT03) attached to a BIOPAC MP150 System. Preparations were allowed to equilibrate for 1 h, then contracted submaximally with noradrenaline (NA, 1 μM) and, when the contraction was stable, acetylcholine (ACh, 10 μM) was added. A relaxant response to ACh indicated the presence of a functional endothelium. When a stable precontraction was reached, a cumulative concentration-response curve to either of the vasorelaxant agents was obtained in the presence of a functional endothelium. Time intervals between different concentrations were based on the time needed to reach a full response.
Moreover, the nitric oxide-dependent vascular relaxation elicited by the tested compounds was examined preincubating the aortic rings with the soluble guanylyl cyclase inhibitor ODQ (1H-(1,2,4)-oxadiazol(4,3-a)quinoxalin-1-one) at 10 μM for 20 min. Responses to vasorelaxing agents were measured from the plateau of NA contraction. The IC50 (concentration giving 50% reversal of NA contraction) was interpolated from the plots of relaxant-response vs log molar concentration of tested compound.
During the experimental period, the plateau obtained with NA was stable without significant spontaneous loss of contraction in the aortic rings.

[1] = Oryctolagus cuniculus, concentration giving 50% reversal of NA (1 μM) contraction, aortic rings with functional endothelium
[2] = concentration giving 50% reversal of NA (1 μM) contraction, aortic rings with functional endothelium

| SMILES | IC50 [1] | also measured |
| --- | --- | --- |
| CC(C)(C)OC(=O)NCC(=O)OCc1ccc(CO[N+](=O)[O-])cc1 [Compound 87, 4-[(nitrooxy)methyl]benzyl 2-(tert-butoxycarbonylamino)acetate] | 2.1 ± 0.4 µM |  |
| CC(C)(C)OC(=O)NCCOC(=O)CCCO[N+](=O)[O-] [Compound 508, 2-(tert-butoxycarbonylamino)ethyl 4-(nitrooxy)butanoate] | 4.4 ± 0.7 µM |  |
| CC(C)(C)OC(=O)N1CCCC1C(=O)OCCCCO[N+](=O)[O-] (stereo not drawn) [Example 14, 1-tert-butyl 2-(4-(nitrooxy)butyl)pyrrolidine-1,2-dicarboxylate] | 1.9 ± 0.4 µM |  |
| CC(C)(C)OC(=O)N1CCCC1C(=O)OCc1ccc(CO[N+](=O)[O-])cc1 (stereo not drawn) [Compound 7, 1-tert-Butyl 2-(4-(nitrooxymethyl)benzyl)pyrrolidine-1,2-dicarboxylate] | 2.4 ± 0.5 µM |  |
| CC(C)(C)OC(=O)NC(CCc1ccccc1)C(=O)Oc1cccc(CO[N+](=O)[O-])c1 (stereo not drawn) [Compound 86, 3-[(Nitrooxy)methyl]phenyl 2-(tert-butoxycarbonylamino)-4-phenylbutanoate] | 5.2 ± 0.9 µM |  |
| CC(C)(C)OC(=O)N1CCCC1C(=O)OCCCO[N+](=O)[O-] (stereo not drawn) [Example 15, 1-tert-butyl 2-(3-(nitrooxy)propyl)pyrrolidine-1,2-dicarboxylate] | 1.2 ± 0.33 µM |  |
| CC(C)(C)OC(=O)NC(CCc1ccccc1)C(=O)OCc1ccc(CO[N+](=O)[O-])cc1 (stereo not drawn) [Compound 13, 4-[(Nitrooxy)methyl]benzyl 2-(tert-butoxycarbonylamino)-4-phenylbutanoate] | 10.2 ± 0.5 µM |  |
| CC(C)(C)OC(=O)N[C@@H](Cc1ccccc1)C(=O)OCCCCO[N+](=O)[O-] [Compound 15, (S)-4-(nitrooxy)butyl 2-(tert-butoxycarbonylamino)-3-phenylpropanoate] | 12.6 ± 6.4 µM |  |
| CC(C)(C)OC(=O)N[C@H](COC(=O)CCCO[N+](=O)[O-])Cc1ccccc1 [Compound 511, (S)-2-(tert-butoxycarbonylamino)-3-phenylpropyl 4-(nitrooxy)butanoate] | 9.5 ± 3.6 µM |  |
| CC(C)(C)OC(=O)N[C@@H](Cc1ccccc1)C(=O)OCCCC[C@H](CO[N+](=O)[O-])O[N+](=O)[O-] [Compound 123] |  | IC50 (Oryctolagus cuniculus): 0.64 ± 0.14 µM |
| NC(COC(=O)OCCCCO[N+](=O)[O-])C(=O)O (stereo not drawn) [Compound 407, 2-amino-3-((4-(nitrooxy)butoxy)carbonyloxy)propanoic acid hydrochloride] |  | IC50 (Oryctolagus cuniculus): 16 ± 6.4 µM |
| CC(C)(C)OC(=O)NCC(=O)NCCCCO[N+](=O)[O-] [Compound 12, tert-butyl 2-(4-(nitrooxy)butylamino)-2-oxoethylcarbamate] | 10.2 ± 4.2 µM |  |
| CC(C)(C)OC(=O)N1CCCC1C(=O)Oc1cccc(CO[N+](=O)[O-])c1 (stereo not drawn) [Compound 8] |  | IC50 [2]: 2.6 ± 0.6 µM |
| CC(C)(C)OC(=O)NC(CCc1ccccc1)C(=O)OCCOCCO[N+](=O)[O-] (stereo not drawn) [Example 21, 2-(2-(Nitrooxy)ethoxy)ethyl 2-(tert-butoxycarbonylamino)-4-phenylbutanoate] | 8 ± 1.8 µM |  |
| CC(C)(C)OC(=O)N1CCCC1C(=O)OCCOCCO[N+](=O)[O-] (stereo not drawn) [Compound 9] |  | IC50 [2]: 4.5 ± 1.4 µM |
